Reference: patent US8440623B2, “Polymer stabilized neuropeptides” (Nektar Therapeutics, priority 1999, dated 2013)

Columns and labels:
[1] = Enzymatic stability in blood plasma; type: in vitro ADME
From the text: (§1) The major contribution is that PEGylation improved brain and blood enzymatic stability dramatically. […] After PEGylation, those half-lives increased to hours for endomorphin II.

[2] = Enzymatic stability in brain tissue; type: in vitro ADME
From the text: as §1

male ICR mice = assay: Analgesia assay (radiant heat tail flick), mice; type: in vivo, mouse; conditions: intravenous, FIG. 3
Method: Male ICR mice (20-25 g) or male Sprague-Dawley rats (250-300 g) (Harlan Sprague-Dawley Inc., Indianapolis, Ind.) were used for these experiments. Animals were housed four per cage in an animal care facility maintained at 22±0.5° C. with an alternating 12 hr light-dark cycle. Food and water were available ad libitum. Animals were used only once.
All drugs were dissolved in sterile saline and were prepared so that the proper dose would be delivered in 5 μl (i.c.v.), 100 μl (i.v.), 100 μl (s.c.) and 100 μl (i.m.) of the vehicle. All rodents were recorded for baseline latency before injection of the drug. A morphine control was used with the i.c.v. and i.v. injection procedures to compare the analgesic efficacies of test compounds. […]
The rodents were placed into restraint holders and their tails were properly placed under the radiant heat beam. The beam was turned on and the time until the animal flicked their tail from under the beam was recorded at each time point. […]
The raw data (recorded times) was converted to a percentage of the maximum possible effect (% M.P.E.) which was determined as 15 seconds. % M.P.E. was determined by the following equation: % M.P.E.=(Recorded time−Baseline)/(15−Baseline)×100
These percentages then allow the compound to be plotted according to % M.P.E. vs. Time. The curve can then be analyzed to determine the area under the curve (AUC).

rat brain = assay: In situ rat brain perfusion (brain uptake); conditions: radiolabeled compound
Method: The protocol for the rat brain perfusion experiments was approved by the Institutional Animal Care and Use Committee at the University of Arizona. The in situ perfusion, capillary depletion, brain extract and protein binding studies were carried out as previously reported (Williams et al., J. Neurochem., 66 (3), pp 1289-1299, 1996).
The protocol for the rat brain perfusion experiments was approved by the Institutional Animal Care and Use Committee at the University of Arizona. The in situ perfusion studies were carried out as previously reported (Williams et al., J. Neurochem., 66 (3), pp 1289-1299, 1996).

Molecule	half-life ([1]; blood plasma) [min]	half-lives in either brain or blood (in words) [1]	half-life [2] [min]	time mark at which 50% M.P.E. is seen (male ICR mice) [min]	in situ uptake RBr value (rat brain)
NC(=O)[C@H](Cc1ccccc1)NC(=O)[C@H](Cc1ccccc1)NC(=O)[C@@H]1CCCN1C(=O)[C@@H](N)Cc1ccc(O)cc1 [endomorphin II, H-Tyr-Pro-Phe-Phe-NH2]	3.2	on the order of minutes	13	–	–
C[C@@H](NC(=O)[C@@H](N)Cc1ccc(O)cc1)C(=O)NCC(=O)N[C@@H](Cc1ccccc1)C(=O)NNC(=O)[C@H](Cc1ccccc1)NC(=O)CNC(=O)[C@@H](C)NC(=O)[C@@H](N)Cc1ccc(O)cc1 [native biphalin, (H-Tyr-D-Ala-Gly-Phe-NH—)2]	–	–	–	90	7.26±0.11
H-Tyr-Gly-Gly-Phe-Leu-Arg-Arg-Ile-Arg-Pro-Lys-NH2 (H-YGGFLRRIRPK-NH2) [dynorphin]	–	on the order of minutes	–	–	–
Tyr-D-Pen-Gly-Phe-D-Pen [I^125 DPDPE]	–	–	–	–	3.54±0.30
